In patent US11702417B2, “Compounds for improving mRNA splicing” (The General Hospital Corporation, priority 2015, dated 2023):
Values belong to the molecule of their own block, whether it stands above or below them.

Assays:
IKBKAP exon 20 inclusion = experiment: In vivo familial dysautonomia mouse model: splicing analysis in tissues; conditions: for inclusion of exon 20 in C57BI6-FD mouse tissues (FIGS. 1A-6): 10, 30 and 60 mg/kg/day, 8 days
Description: […] Every dosing group and the control group (vehicle) consisted of 6 mice. The mice were given food and water ad libitum, and changes in body weights were monitored on a daily basis. On the eighth day the mice were dosed for the last time and after 1 hour the mice were sacrificed and dissected. Plasma, liver, kidney, heart and brain were collected.
The following solutions were prepared daily: Compound (230) in 10% DMA/45% PEG 300/12% EtOH/33% sterile water; and Compound (270) in 10% DMA/45% PEG 300/12% EtOH/33% sterile water.
[…] Six transgenic mice were fed daily with 10% DMA/45% PEG 300/12% EtOH/33% sterile water solution for the same duration. The mice were given food and water ad libitum, and changes in body weights were monitored on a daily basis. On the eighth day the mice were dosed for the last time and after 1 hour were sacrificed and dissected. Plasma, lungs, muscle, liver, heart, brain, kidney, sciatic nerve, and trigeminal nerve were collected. Splicing was evaluating by RT-PCT and IKAP protein was evaluated using Western Blotting.

[1] = system: FD (familial dysautomonia) IKBKAP minigene, exon 20 inclusion, in HEK293T cells; experiment: Primary splicing assay (FD IKBKAP minigene, Firefly/Renilla luciferase reporter in HEK293T); type: cell-based, human; conditions: Homo sapiens, HEK-293T, Firefly/Renilla ratio, 24 hours of treatment; for EC (maximum kinetin efficacy): HEK293T, read-out: ECk (compound concentration at which the maximum kinetin efficacy (200 μM) is reached); for Emax: max efficacy in Primary Assay, kinetin and DMSO as positive and negative controls, read-out: Emax (%)
[2] = system: IKBKAP splicing (exon 20 inclusion) in FD fibroblasts GM04663; experiment: Secondary assay: IKBKAP splicing analysis by RT-PCR in FD fibroblasts GM04663; type: cell-based; conditions: Homo sapiens, FD fibroblasts GM04663, 24 hours of treatment, read-out: % exon Inclusion Normalized
[3] = In vivo FD mouse model: presence of compound in plasma and brain; conditions: oral gavage eight days, 1 hour after last dose
Description: Compound (100) was administered by oral gavage for eight days at 60 mg/kg/day, 30 mg/kg/day and 10 mg/kg/day to the mouse transgenic familial dysautonomia (FD) model. Every dosing group and the control group (vehicle) consisted of 6 mice. The mice were given food and water ad libitum, and changes in body weights were monitored on a daily basis. On the eighth day the mice were dosed for the last time and after 1 hour the mice were sacrificed and dissected. Plasma, liver, kidney, heart and brain were collected.

IKBKAP splicing = conditions: mice, oral, 400 mg/kg/day for 7 days; cited from earlier work
IKAP protein = experiment: In vivo FD mouse model: IKAP protein in liver by western blot; conditions: 400 mg/kg/day
Description: Six transgenic mice were fed daily with 10% DMA/45% PEG 300/12% EtOH/33% sterile water solution for the same duration. The mice were given food and water ad libitum, and changes in body weights were monitored on a daily basis. On the eighth day the mice were dosed for the last time and after 1 hour were sacrificed and dissected. Plasma, lungs, muscle, liver, heart, brain, kidney, sciatic nerve, and trigeminal nerve were collected. Splicing was evaluating by RT-PCT and IKAP protein was evaluated using Western Blotting. Protein extracts were obtained by homogenizing liver or cell pellets in RIPA buffer (Tris-HCl 50 mM, pH 7.4; NaCl 150 mM; NP-40 1%; Sodium deoxycholate 0.5%; SDS 0.1%) containing protease inhibitor cocktail (Sigma), DTT (100 μM) and PMSF (100 μM). Insoluble debris were discarded after centrifugation and protein concentration was determined using Pierce® […] BCA Protein Assay Kit (Thermo Scientific). 50 μg of protein was separated on NuPage 4-12% Bis-Tris Gel (Invitrogen) and transferred into nitrocellulose membrane (Thermo Scientific). […]

[4] = system: normal IKBKAP mRNA in peripheral blood; conditions: human patients and carriers of familial dysautonomia, preliminary testing; cited from earlier work

SMILES: FC(F)(F)COc1nc2c(NCc3ccco3)nc(Cl)nc2[nH]1 [(270)]
- inclusion of exon 20 in C57BI6-FD mouse tissues (FIGS. 1A-6) (IKBKAP exon 20 inclusion): useful for improving inclusion of exon 20
- EC (maximum kinetin efficacy) [1]: 0.59 µM
- Emax [1]: 218%
- activation at 0.08 µM [2]: 28.7%
- activation at 0.8 µM [2]: 101%

SMILES: COc1nc2c(NCc3nccs3)nc(Cl)nc2[nH]1 [(230)]
- inclusion of exon 20 in C57BI6-FD mouse tissues (FIGS. 1A-6) (IKBKAP exon 20 inclusion): useful for improving inclusion of exon 20
- EC (maximum kinetin efficacy) [1]: 1.5 µM
- Emax [1]: 216%
- activation at 0.08 µM [2]: 22.3%
- activation at 0.8 µM [2]: 70%

- presence of compound in brain [3]: evident in the brain
- presence of compound in plasma [3]: presence of (100) in the plasma
SMILES: Clc1nc(NCc2ccncc2)c2cc[nH]c2n1 [(100)]
- EC (maximum kinetin efficacy) [1]: 2.18 µM
- Emax [1]: 235%
- activation at 0.08 µM [2]: 22.6%
- activation at 0.8 µM [2]: 62.1%

SMILES: c1coc(CNc2ncnc3nc[nH]c23)c1 [kinetin, N^6-furfuryladenine, reference compound]
- IKBKAP splicing in vivo in certain tissues, including the brain (IKBKAP splicing): improve IKBKAP splicing in vivo
- level of the IKAP protein in liver (IKAP protein): no significant changes
- splicing in kidney (IKBKAP exon 20 inclusion; 400 mg/kg/day): no significant changes in splicing
- splicing in brain (IKBKAP exon 20 inclusion; 400 mg/kg/day, 8 days of treatment): no significant change
- normal IKBKAP mRNA in peripheral blood [4]: increased normal IKBKAP mRNA in peripheral blood
- activation at 200 µM ([2]; 200 μM (kinetin control)): 100%

- melting point: 125 to 128 °C
SMILES: FCCn1ncc2c(NCc3ccco3)nc(Cl)nc21 [Example 12, 6-Chloro-1-(2-fluoroethyl)-N-(furan-2-ylmethyl)-1H-pyrazolo[3,4-d]pyrimidin-4-amine]

SMILES: Clc1nc(NCc2nccs2)c2nc(OCc3cscn3)[nH]c2n1 [(348)]
- EC (maximum kinetin efficacy) [1]: 0.7 µM
- Emax [1]: 171%
- activation at 0.08 µM [2]: 49%
- activation at 0.8 µM [2]: 102%

SMILES: CCOc1nc2c(NCc3ccncn3)nc(Cl)nc2[nH]1 [(320)]
- EC (maximum kinetin efficacy) [1]: 0.52 µM
- Emax [1]: 208%
- activation at 0.08 µM [2]: 47.1%
- activation at 0.8 µM [2]: 103%
